IC50 data for 37 molecules are collected here from patent publication US9790221B2, “Heteroaryl compounds as IRAK inhibitors and uses thereof” (Merck Patent GmbH, priority 2014, dated 2017).

Counter-ions that a name gives are not always drawn.

For assay [1], the target named is IRAK1 (His-TEV-IRAK1 (194-712)) (Homo sapiens (Human), UniProt P51617). Put plainly: IRAK1 enzymatic assay. The format is biochemical. The method, boiled down:
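Recombinant His-TEV-IRAK1 (194-712), 15 ng/well, autophosphorylation with 1 μM ATP plus [33P]ATP, 3 h at 30° C in Hepes pH 7.0 buffer with MgCl2, DTT, EGTA, BSA and Triton; compounds from 20 µM to 1 nM. The reaction was stopped with EDTA, and radioactivity was counted in streptavidin FlashPlates.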

The target of the next assay is IRAK4 (Homo sapiens (Human), UniProt Q9NWZ3). Put plainly: IRAK4 enzymatic assay. In kind it is biochemical. The method, boiled down:
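Recombinant His-TEV-IRAK4 (20 ng/well) phosphorylating biotinylated STK1 peptide (300 nM) with 2 μM ATP plus [^33P]ATP, 3 h at 30° C in pH 7.0 Hepes buffer with Mg2+ and Mn2+. Compounds 20 µM to 1 nM; EDTA stop, radioactivity captured on streptavidin FlashPlates.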

Assay [2] relates to TLR7 induced IL-6 secretion in human mononuclear cells (PBMC's). Description: TLR7 induced IL-6 in human PBMC's. The format is cell-based. The settings on record: Homo sapiens, PBMC, read-out: TLR7 induced IL-6 secretion in hPBMC's (IC50). The procedure: TLR7 Induced IL-6 in Human PBMC's
Human PBMC assay was used as one of the functional assay a to monitor the activity of IRAK1 and IRAK4 small molecule inhibitors on TLR7 induced IL-6 secretion in human mononuclear cells (PBMC's). Human PBMCs were prepared from buffy coats (whole blood enriched with leukocytes and platelets) obtained from healthy volunteers used either fresh or frozen are plated in assay media (RPMI+2% P/S/L-glu+10% HI-FBS) and pre-treated with compounds in DMSO/media (range of concentrations from 25 uM to 0.4 nM) or controls (0.25% DMSO) for 30 minutes at 37° C. in assay media. Following pre-treatment with IRAK1 and IRAK4 inhibitors, PBMC's were stimulated with TLR7 specific ligand (2 uM) overnight (16-18 hrs) at 37° C. After incubation supernatant was transferred to 384 well PE AlphaPlate-384 (6005350) and IL-6 is quantified using Perkin Elmer IL-6 Alpha LISA kit (AL223C). Plates were read on an Envision® plate reader with Alpha Technology®.

Chain of IRAK1 (His-TEV-IRAK1 (194-712)) (P51617 194-712): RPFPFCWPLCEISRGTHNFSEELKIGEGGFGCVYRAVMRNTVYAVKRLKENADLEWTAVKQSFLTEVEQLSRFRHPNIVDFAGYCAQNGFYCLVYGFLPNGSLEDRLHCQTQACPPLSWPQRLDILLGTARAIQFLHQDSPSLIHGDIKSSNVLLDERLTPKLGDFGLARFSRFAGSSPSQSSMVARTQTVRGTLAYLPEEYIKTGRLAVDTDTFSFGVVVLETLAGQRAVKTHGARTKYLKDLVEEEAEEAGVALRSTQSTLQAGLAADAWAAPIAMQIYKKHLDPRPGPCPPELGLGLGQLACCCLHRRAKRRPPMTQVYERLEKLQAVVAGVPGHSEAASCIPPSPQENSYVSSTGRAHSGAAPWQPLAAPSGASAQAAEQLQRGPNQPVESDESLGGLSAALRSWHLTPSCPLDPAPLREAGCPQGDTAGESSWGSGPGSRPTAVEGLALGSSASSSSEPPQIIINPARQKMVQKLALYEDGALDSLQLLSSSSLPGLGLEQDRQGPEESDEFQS
Chain of IRAK4 (Q9NWZ3 whole entry): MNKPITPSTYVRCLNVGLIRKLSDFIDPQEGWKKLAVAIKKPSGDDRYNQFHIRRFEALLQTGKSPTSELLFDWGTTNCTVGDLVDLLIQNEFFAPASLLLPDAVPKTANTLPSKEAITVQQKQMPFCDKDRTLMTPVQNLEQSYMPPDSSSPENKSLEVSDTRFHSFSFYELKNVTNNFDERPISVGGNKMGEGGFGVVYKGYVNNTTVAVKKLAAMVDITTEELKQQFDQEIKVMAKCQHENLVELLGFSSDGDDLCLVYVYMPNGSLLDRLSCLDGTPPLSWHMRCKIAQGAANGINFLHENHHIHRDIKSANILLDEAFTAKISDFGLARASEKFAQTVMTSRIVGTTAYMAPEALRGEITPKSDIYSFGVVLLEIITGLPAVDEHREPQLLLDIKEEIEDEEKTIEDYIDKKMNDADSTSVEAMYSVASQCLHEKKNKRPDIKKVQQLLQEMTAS

What is called IC50 is the concentration at which inhibition is half-maximal. As to `Cn1cc(-c2cccc(-c3ncc(-c4cnn(C)c4)c(NC[C@@H](O)CO)n3)c2)cn1` [Example 56], the IC50 is greater than 5000 nM in assay [1], less than 100 nM on IRAK4 and 1000 to 5000 nM in assay [2].

`CC(=O)NCCNc1nc(-c2cccc(-c3cnn(C)c3)c2)ncc1-c1cnn(C)c1` [Example 57]: the IC50 in assay [1] is 100 to 1000 nM; against IRAK4, 100 to 1000 nM; in assay [2] it was greater than 5000 nM.

On to `Cn1cc(-c2cccc(-c3ncc(-c4cnn(C)c4)c(N[C@H]4CCC(=O)NC4)n3)c2)cn1` [Example 60], for which the half-inhibitory concentration (IC50) in assay [1] is 1000 to 5000 nM; against IRAK4, 100 to 1000 nM; in assay [2], 1000 to 5000 nM.

Take `Cn1cc(-c2cccc(-c3ncc(-c4cnn(C)c4)c(N[C@H]4C[C@@H](N)C4)n3)c2)cn1` [Example 62]: the IC50 in assay [1] was in the range of 1000 to 5000 nM; against IRAK4 it was 100 to 1000 nM; in assay [2], 1000 to 5000 nM.

Turning to `Cn1cc(-c2cccc(-c3ncc(-c4cnn(C)c4)c(NCC4COC4)n3)c2)cn1` [Example 63], the results for the 50% inhibitory concentration (IC50) (in assay [1]; on IRAK4; in assay [2]) were 100 to 1000 nM, less than 100 nM and 1000 to 5000 nM, respectively.

In the case of `Cn1cc(-c2cccc(-c3ncc(-c4cnn(C)c4)c(NC4CC5(CC(N)C5)C4)n3)c2)cn1` (stereo not drawn) [Example 65], the results for the IC50 (in assay [1]; on IRAK4; in assay [2]) were 100 to 1000 nM, less than 100 nM and 100 to 1000 nM, respectively.

With `Cn1cc(-c2cccc(-c3ncc(-c4cnn(C)c4)c(NC45CCC(N)(C4)C5)n3)c2)cn1` [Example 66], the half-maximal inhibitory concentration (IC50) is less than 100 nM in assay [1], less than 100 nM against IRAK4 and 100 to 1000 nM in assay [2].

Regarding `Cn1cc(-c2cccc(-c3ncc(-c4cnn(C)c4)c(NCC4CCNC(=O)C4)n3)c2)cn1` (stereo not drawn) [Example 76], the IC50 in assay [1] is 1000 to 5000 nM; at IRAK4, 100 to 1000 nM; in assay [2], greater than 5000 nM.

Regarding `Cn1cc(-c2cccc(-c3ncc(-c4cnn(C)c4)c(NCC4[C@H]5CNC[C@@H]45)n3)c2)cn1` (stereo partly drawn) [Example 77], the figures for the IC50 (in assay [1]; against IRAK4; in assay [2]) were greater than 5000 nM, 100 to 1000 nM and 1000 to 5000 nM, respectively.

As to `Cn1cc(-c2cccc(-c3ncc(-c4ccn(C)n4)c(NCC4CC(F)(F)C4)n3)c2)cn1` [Example 81], the IC50 in assay [1] is 1000 to 5000 nM; on IRAK4, 100 to 1000 nM; in assay [2] it was greater than 5000 nM.

Consider `Cn1cc(-c2cccc(-c3ncc(-c4ccn(C)n4)c(NC[C@@H](O)CO)n3)c2)cn1` [Example 83], for which the figures for the IC50 (in assay [1]; at IRAK4; in assay [2]) were 1000 to 5000 nM, 100 to 1000 nM and 100 to 1000 nM, respectively.

Take `Cn1cc(-c2cccc(-c3ncc(-c4ccn(C)n4)c(NCCN4CCS(=O)(=O)CC4)n3)c2)cn1` [Example 84]: the IC50 in assay [1] was 1000 to 5000 nM; against IRAK4, 100 to 1000 nM; in assay [2] it was greater than 5000 nM.

On to `Cn1cc(-c2cccc(-c3ncc(-c4cnn(C)c4)c(NCCC4CCNC4)n3)c2)cn1` (stereo not drawn) [Example 85], for which the figures for the IC50 (in assay [1]; on IRAK4; in assay [2]) were greater than 5000 nM, 100 to 1000 nM and 1000 to 5000 nM, respectively.

Turning to `Cn1cc(-c2cccc(-c3ncc(-c4cnn([C@H]5CC[C@]6(CCC(=O)N6C)CC5)c4)c(NCC4CCNCC4)n3)c2)cn1` [Example 86, 1-Methyl-8-(4-{2-[3-(1-methyl-1H-pyrazol-4-yl)-phenyl]-4-[(piperidin-4-ylmethyl)-amino]-pyrimidin-5-yl}-pyrazol-1-yl)-1-aza-spiro[4.5]decan-2-one Hydrochloride], the IC50 was 1000 to 5000 nM in assay [1], less than 100 nM at IRAK4 and greater than 5000 nM in assay [2].

For the molecule `CN1CCC(CNc2nc(-c3cccc(-c4cnn(C)c4)c3)ncc2-c2cnn([C@H]3CC[C@]4(CCC(=O)N4C)CC3)c2)CC1` [Example 87, 1-Methyl-8-(4-{4-[(1-methyl-piperidin-4-ylmethyl)-amino]-2-[3-(1-methyl-1H-pyrazol-4-yl)-phenyl]-pyrimidin-5-yl}-pyrazol-1-yl)-1-aza-spiro[4.5]decan-2-one], the IC50 was 1000 to 5000 nM in assay [1], less than 100 nM on IRAK4 and 1000 to 5000 nM in assay [2].

For the molecule `Cn1cc(-c2cccc(-c3ncc(-c4ccn(C)n4)c(NC4(CO)COC4)n3)c2)cn1` [Example 93], the figures for the concentration for half-maximal inhibition (IC50) (in assay [1]; at IRAK4; in assay [2]) were 100 to 1000 nM, less than 100 nM and 100 to 1000 nM, respectively.

In the case of `Cn1cc(-c2cccc(-c3ncc(-c4ccn(C)n4)c(NCCCCO)n3)c2)cn1` [Example 97], the half-inhibitory concentration (IC50) in assay [1] was 100 to 1000 nM; on IRAK4 it was less than 100 nM; in assay [2], 1000 to 5000 nM.

As for `Cn1cc(-c2cccc(-c3ncc(-c4ccn(C)n4)c(NC4CC(CN)(CCl)C4)n3)c2)cn1` (stereo not drawn) [Example 99], the IC50 in assay [1] is 100 to 1000 nM; at IRAK4, less than 100 nM; in assay [2], 100 to 1000 nM.

On to `Cn1cc(-c2cccc(-c3ncc(-c4cnn(C)c4)c(NCCCCO)n3)c2)cn1` [Example 101], for which the half-maximal inhibitory concentration (IC50) in assay [1] was 1000 to 5000 nM; on IRAK4, less than 100 nM; in assay [2], 100 to 1000 nM.

Regarding `Cn1cc(-c2cccc(-c3ncc(-c4cnn(C)c4)c(NCC4(O)CCNCC4(C)C)n3)c2)cn1` (stereo not drawn) [Example 112], the half-maximal inhibitory concentration (IC50) was in the range of 1000 to 5000 nM in assay [1], 100 to 1000 nM against IRAK4 and 1000 to 5000 nM in assay [2].

With `Cn1cc(-c2cccc(-c3ncc(-c4ccn(C)n4)c(NCC4CNCCO4)n3)c2)cn1` (stereo not drawn) [Example 115], the values for the IC50 (in assay [1]; at IRAK4; in assay [2]) were greater than 5000 nM, 100 to 1000 nM and 100 to 1000 nM, respectively.

As for `Cn1cc(-c2cccc(-c3ncc(-c4cnn(C)c4)c(OCC4CCCO4)n3)c2)cn1` (stereo not drawn) [Example 118], the IC50 is 1000 to 5000 nM in assay [1], less than 100 nM against IRAK4 and 1000 to 5000 nM in assay [2].

`Cn1cc(-c2cccc(-c3ncc(-c4ccn(C)n4)c(NC4CCOC4)n3)c2)cn1` (stereo not drawn) [Example 119]: the results for the IC50 (in assay [1]; against IRAK4; in assay [2]) were 1000 to 5000 nM, 100 to 1000 nM and greater than 5000 nM, respectively.

Turning to `Cn1cc(-c2cccc(-c3ncc(-c4cnn(C)c4)c(NCC4CCCC(O)C4)n3)c2)cn1` (stereo not drawn) [Example 123], the values for the IC50 (in assay [1]; at IRAK4; in assay [2]) were 100 to 1000 nM, less than 100 nM and 100 to 1000 nM, respectively.

For `Cn1cc(-c2cccc(-c3ncc(-c4ccn(C)n4)c(NC4CCCCNC4)n3)c2)cn1` (stereo not drawn) [Example 125], the IC50 in assay [1] was greater than 5000 nM; at IRAK4 it was 100 to 1000 nM; in assay [2], 100 to 1000 nM.

Take `Cc1nnc(-c2cnc(-c3cccc(-c4cnn(C)c4)c3)nc2NCCN2CCS(=O)(=O)CC2)s1` [Example 127]: the IC50 was greater than 5000 nM in assay [1], less than 100 nM on IRAK4 and 100 to 1000 nM in assay [2].

For the molecule `Cc1nnc(-c2cnc(-c3cccc(-c4cnn(C)c4)c3)nc2NC2CCC(N)CC2)s1` (stereo not drawn) [Example 128], the half-maximal inhibitory concentration (IC50) in assay [1] is 100 to 1000 nM; on IRAK4 it was less than 100 nM; in assay [2] it was 100 to 1000 nM.

With `Cc1nnc(-c2cnc(-c3cccc(-c4cnn(C)c4)c3)nc2N[C@H]2CC[C@@H](NS(C)(=O)=O)CC2)s1` [Example 129], the IC50 in assay [1] is 100 to 1000 nM; against IRAK4 it was less than 100 nM; in assay [2], 100 to 1000 nM.

Regarding `Cn1cc(-c2cccc(-c3ncc(-c4cnn(C)c4)c(NCCC(C)(C)O)n3)c2)cn1` [Example 135], the IC50 in assay [1] was 100 to 1000 nM; at IRAK4, less than 100 nM; in assay [2] it was 100 to 1000 nM.

In the case of `Cn1cc(-c2cccc(-c3ncc(-c4cnn(C)c4)c(NCC4CCC(F)(F)CC4)n3)c2)cn1` [Example 136], the IC50 in assay [1] is 100 to 1000 nM; against IRAK4, less than 100 nM; in assay [2], 1000 to 5000 nM.

As to `Cn1cc(-c2cccc(-c3ncc(-c4cnn(C)c4)c(NC4CCOCC4)n3)c2)cn1` [Example 137], the IC50 was 100 to 1000 nM in assay [1], less than 100 nM on IRAK4 and 100 to 1000 nM in assay [2].

For `Cn1cc(-c2cccc(-c3ncc(-c4ccn(C)n4)c(NC4CCOCC4)n3)c2)cn1` [Example 138], the IC50 in assay [1] was 1000 to 5000 nM; at IRAK4 it was less than 100 nM; in assay [2], 1000 to 5000 nM.

With `CN(CC1CC(F)(F)C1)c1nc(-c2cccc(-c3cnn(C)c3)c2)ncc1-c1cnn(C)c1` [Example 141], the figures for the IC50 (in assay [1]; at IRAK4; in assay [2]) were 1000 to 5000 nM, 100 to 1000 nM and 1000 to 5000 nM, respectively.

For the molecule `Cn1cc(-c2cccc(-c3ncc(-c4cnn(C)c4)c(N[C@H]4CC[C@H](N)CC4)n3)c2)cn1` [Example 143], the values for the IC50 (in assay [1]; at IRAK4; in assay [2]) were 100 to 1000 nM, less than 100 nM and 100 to 1000 nM, respectively.

`Cc1nnc(-c2cnc(-c3cccc(-c4cnn(C)c4)c3)nc2NCCN2CCOCC2)s1` [Example 146]: the IC50 in assay [1] is greater than 5000 nM; against IRAK4 it was less than 100 nM; in assay [2], 1000 to 5000 nM.

For the molecule `Cn1cc(-c2cccc(-c3ncc(-c4cnn(C)c4)c(N[C@H]4CC[C@H](O)CC4)n3)c2)cn1` [Example 149], the values for the half-inhibitory concentration (IC50) (in assay [1]; on IRAK4; in assay [2]) were 100 to 1000 nM, less than 100 nM and 100 to 1000 nM, respectively.

Take `Cn1cc(-c2cccc(-c3ncc(-c4ccn(C)n4)c(NC4C5CCCC4CC(N)C5)n3)c2)cn1` (stereo not drawn) [Example 152]: the IC50 in assay [1] was 100 to 1000 nM; at IRAK4, less than 100 nM; in assay [2], 100 to 1000 nM.
